Reference: patent US20110236395A1, “TREATMENT OF FIBROTIC EYE DISORDERS USING AN MMP2 INHIBITOR” (UNIVERSITY OF EAST ANGLIA, priority 2008, published 2011)

Columns and labels:
HLE-B3 = HLE-B3 cell line; cited from earlier work
excised rat lenses = settings: concentrations typically micromolar; cited from earlier work
FHL 124 cells = assay: Patch contraction assay (TGF-β-induced matrix contraction); format: cell-based, human
Method: FIG. 2. […] FHL 124 cells were seeded to form patches, maintained in serum-free medium before exposure to experimental conditions. All cultures were maintained for 72 hours in 5% EMEM (Eagle's minimal essential medium) alone or 5% FCS (fetal calf serum) EMEM supplemented with 10 ng/mL TGF-β1 or -β2±the MMP inhibitor GM6001 (25 μM). (A) Visual representations of patch assay cultures in different experimental conditions. (B) Quantified data showing differences in patch area. (C) Data showing differences in cell populations between patch areas (Coomassie blue dye was extracted and quantified from the same experiment as presented in (B)). In FIGS. 2(B) and (C) each left hand bar of the bar pairs reports the result in the absence of GM6001 (indicated as “−GM6001” in the key) and the right hand bar reports the result in the presence of GM6001 (indicated as “+GM6001” in the key). Data represent mean±SEM. * Indicates a significant difference from unstimulated control cells. # Indicates a significant difference between siMMP2 treated cells and SCR siRNA counterparts (p≦0.05, ANOVA with the Tukey test).
FIG. 6. MMP2 is important for TGF-β-induced matrix contraction. FHL 124 cells were seeded to form patches, then transfected with siRNA targeted to MMP2 or SCR negative control and maintained in Optimem™ (Invitrogen Corporation; Optimem is a modified EMEM, buffered with HEPES and sodium bicarbonate and supplemented with hypoxanthine, thymidine, sodium pyruvate, L-glutamine or Glutamax, trace elements and growth factor; the protein level is minimal (15 μg/mL) with insulin and transferrin being the only protein supplements; phenol red is included as a pH indicator). Patches were measured after 72 hours of culture with 10 ng/mL TGF-β1 or […]. (A) Visual representations of patch assay cultures in different experimental conditions. (B) Quantified data showing differences in patch area. (C) Data showing differences in cell populations between patch areas (Coomassie blue dye was extracted and quantified from the same experiment as presented in (B)). In FIGS. 6(B) and (C) each left hand bar of the bar pairs reports the result with Scramble siRNA (indicated as “Scramble SiRNA” in the key) and the right hand bar reports the result in the presence of MMP2 specific siRNA (indicated as “MMP2 SiRNA” in the key). The data in (B) and (C) represent the mean±SEM (n≦4). *Indicates a significant difference from unstimulated control cells. # Indicates a significant difference between siMMP2 treated cells and SCR siRNA counterparts (p≦0.05, ANOVA with the Tukey test).
FIG. 7. MMP2 inhibition using neutralising antibody ([…]) prevents TGF-β2 (10 ng/ml)-induced matrix contraction assessed by patch assay. In FIG. 7(B) each left hand bar of the bar pairs reports the result in the absence of the antibody (indicated as “−4 μg/ml Anti MMP2” in the key) and the right hand bar reports the result in the presence of the antibody (indicated as “+4 μg/ml Anti MMP2” in the key). Data expressed as Mean±SEM (n=3).
FHL 124 cells were seeded at four sites on a tissue culture dish at 5000 cells in 25 μl and maintained in EMEM supplemented with 5% FCS until confluent regions spanning about 5 mm developed (Wormstone et al, Exp. Eye Res. (2004), 78, pages 705-14). The medium was then replaced with non-supplemented EMEM, and the cells were cultured for a further 24 hours, followed by the removal of medium from four patch culture dishes fixed for 30 minutes with 4% formaldehyde at room temperature, followed by washing in PBS. The patches were used as a t=0 reference control.
All remaining cell cultures were exposed to experimental conditions for up to 3 days. Experiments were terminated after the appearance of cell-free regions (holes) within the central region of the patch, by fixation for 30 minutes with 4% formaldehyde at room temperature. […]

[1] = tested on: posterior capsule / capsular bag; settings: in the absence of TGF-β; cited from earlier work
MMP2 = assay: Gelatin zymography of MMP2 protein expression after siRNA transfection; format: cell-based, human; settings: over a 72 hour period, zymography of culture media
Method: FIG. 5. SiMMP2 suppresses MMP2 protein expression. […] However, throughout this period the MMP2 level in the siMMP2 treated cells is about 50% of the siRNA control cells (SCR). In FIG. 5A each left hand bar of the bar pairs reports the result with Scramble siRNA (indicated as “Scramble SiRNA” in the key) and the right hand bar reports the result in the presence of MMP2 specific siRNA (indicated as “MMP2 SiRNA” in the key).
Gelatinolytic activity of culture media was analyzed by electrophoresis under non-reducing conditions on a 7% SDS-polyacrylamide gel containing 0.5 mg/mL denatured collagen type I (gelatin; Sigma) as previously described by Gavrilovic J. et al. (Cell Regul. (1990) 1, pages 1003-14). After electrophoresis, gels were washed twice in 2.5% Triton-X 100 for 15 minutes and then incubated for 4 hours at 37° C. in 100 mM Tris-HCl (pH 7.9), 30 mM CaCl2, and 0.02% sodium azide. The gels were stained with Coomassie brilliant blue (Sigma), and the images were captured with a gel scanner.
Custom made MMP2 siRNA: sense 5′-[…]-3′ (SEQ. ID. NO: 1), antisense 5′-[…]-3′ (SEQ. ID. NO: 2) and siRNA negative control (universal scrambled siRNA) were used. Both siRNAs were purchased from Ambion Ltd. (Huntingdon, UK). FHL 124 cells were seeded onto 35-mm culture dishes at either 25,000 cells in 1.5 ml for protein extraction or as four patches of 5000 cells, for patch assay analysis. […]

[2] = tested on: MMP2 gene expression in FHL 124 cells; assay: Quantitative real-time PCR of MMP2 gene expression after siRNA transfection; format: cell-based, human; settings: 100 nM siRNA
Method: FIG. 4. Validation of siRNA directed against specific inhibition of MMP2 for 24 hours using targeted siRNA techniques leads to a greater than 90% reduction in MMP2 gene expression. Furthermore, after 48 hours from initial MMP2 SiRNA transfection, MMP2 gene expression levels are still reduced by more than 80% in comparison with Scramble SiRNA controls. Each left hand bar of the bar pairs reports the result with Scramble siRNA (indicated as “Scramble SiRNA” in the key) and the right hand bar reports the result in the presence of MMP2 specific siRNA (indicated as “MMP2 SiRNA” in the key).
Total RNA was extracted from tissue and primary cultured cells (RNeasy micro kits; Qiagen, West Sussex, UK) in accordance with the manufacturer's instructions. In the initial step, RLT buffer (containing-mercaptoethanol) was added directly to phosphate buffered saline (PBS)-washed culture monolayers. Cultured cell lysates were removed with a cell scraper. Each sample was then transferred to an individual Eppendorf tube and passed through a needle and syringe. The remainder of the protocol was as described by the manufacturer and included a DNAse step. Quality control was maintained with an RNA analyzer (Bioanalyzer 2100; Agilent, West Lothian, UK) and an RNA lab chip (6000 Nano lab chip; Agilent) to ensure that 28S and 18S rRNA bands were clearly evident in total RNA samples. RNA was quantified with a spectrophotometer (ND-1000; NanoDrop, Wilmington, Del., USA). For the samples analyzed, the 260:280 ratio ranged from 1.8 to 2.2 (mean, 2.0). Where possible, total RNA was immediately used for cDNA generation or was briefly stored at −80° C. […]
Quantitative real-time PCR was used to analyze mRNA expression for all genes in FHL 124 cells (for a comprehensive description of MMPs and TIMPs primer/probe sets used, see Nuttall R. K. et al. (Mol Cancer Res (2003) 1, pages 333-345. Assuming 100% efficiency in the reverse transcription reaction, either 1 ng or 5 ng cDNA was used in real-time PCR reactions performed using a real-time PCR machine (ABI7700; Applied Biosystems). Reagent-based assays (Taq-Man Universal PCR Master Mix, No AmpErase UNG; Applied Biosystems) with all PCR reagents were used according to the manufacturer's instructions. The amount of amplification associated with priming from genomic DNA contamination was evaluated with control reverse transcription reactions containing all reagents without reverse transcriptase. […] The cycle number at which amplification entered the exponential phase (cycle threshold [CT]) was determined, and this number was used as an indicator for the amount of target RNA in each sample analyzed. […]

[3] = 25 μM GM6001 in presence of 10 ng/ml TGF-β1 or TGF-β2, 72 hours
[4] = siMMP2 transfected, 10 ng/ml TGF-β1 or TGF-β2, 72 hours

Molecule: O=C(O)[C@@H](Cc1ccccc1)NS(=O)(=O)c1ccc(-c2ccccc2)cc1 [(2R)-2-[(4-biphenylylsulphonyl)amino]-3-phenylpropionic acid]
- TGF-β1-induced morphological change in the cells (HLE-B3): blocked

Molecule: O=C(NO)[C@@H](Cc1ccccc1)NS(=O)(=O)c1ccc(-c2ccccc2)cc1 [(2R)-[(4-biphenylylsulfonyl)amino]-N-hydroxyl-3-phenylpropionamide]
- occurrence of TGF-β-induced anterior subcapsular cataracts (ASCs) (excised rat lenses): prevents the occurrence

Molecule: CNC(=O)[C@H](Cc1c[nH]c2ccccc12)NC(=O)[C@@H](CC(=O)NO)CC(C)C [GM6001, N-[(2R)-2-(hydroxamidocarbonylmethyl)-4-methylpentanoyl]-L-trypto-phan methylamide]
- occurrence of TGF-β-induced anterior subcapsular cataracts (ASCs) (excised rat lenses): prevents the occurrence
- effect on patch area relative to control (FHL 124 cells; 25 μM GM6001 alone (no TGF-β), 72 hours, vs control 5% FCS EMEM group): no significant effect on patch area
- formation of cell free zones (FHL 124 cells; [3]): suppressed the formation of cell free zones
- patch area vs un-stimulated control group (FHL 124 cells; [3]): did not significantly differ from the un-stimulated control group
- TGF-β-induced matrix contraction (FHL 124 cells; GM6001 25 μM, 10 ng/mL TGF-β1 or -β2, 72 hours (FIG. 2 legend)): prevents TGF-β-induced matrix contraction
- total protein content by Coomassie blue dye extraction (cell population) (FHL 124 cells; patches ± 10 ng/ml TGF-β1 or -β2 ± GM6001, 72 hours): no significant changes
- capsular bag contraction [1]: suppress consequent capsular bag contraction
- cell migration onto the posterior capsule surface [1]: suppress cell migration onto the posterior capsule surface

Molecule: siMMP2: Custom made MMP2 siRNA: sense 5′-GGACACACUAAAGAAGAUGTT-3′, antisense 5′-CAUCUUCUUUAGUGUGUCCTT-3′, purchased from Ambion (chemistry not given here)
- TGF-β-induced contraction (FHL 124 cells; [4]): did not show any evidence of contraction
- patch area vs non-TGF-β-treated controls (FHL 124 cells; [4]): did not differ significantly from non-TGF-β-treated controls
- patch area vs SCR control (FHL 124 cells; siRNA transfected, non-stimulated conditions (no TGF-β)): did not show a statistical difference in patch area from the SCR control
- MMP2 protein level relative to Scrambled siRNA control (MMP2): about 50%
- MMP2 protein level relative to Scrambled siRNA control (MMP2; listed as siRNA against MMP2): approximately 50%
- reduction in MMP2 gene expression ([2]; 24 hours in transfection conditions, vs negative control siRNA): greater than 90%
- reduction in MMP2 gene expression ([2]; 24 hours in transfection conditions, vs negative control siRNA, listed as siRNA against MMP2): 90%
- reduction in MMP2 gene expression ([2]; 48 hours from transfection, vs Scramble siRNA controls): more than 80%
- reduction in MMP2 gene expression ([2]; 48 hours from transfection, vs Scramble siRNA controls, listed as siRNA against MMP2): > 70%
